Experimental data: ChEMBL document CHEMBL5291721, “A preclinical secondary pharmacology resource illuminates target-adverse drug reaction associations of marketed drugs” (Nat Commun, 2023)

What was measured:
Acetylcholinesterase = Acetylcholinesterase (Homo sapiens, UniProt P22303); assay type: functional
[1] = molecular target: T1, Prostaglandin G/H synthase 1 (Homo sapiens, UniProt P23219); assay type: functional
[2] = molecular target: T1, Prostaglandin G/H synthase 1; assay type: functional; remark: listed apart in the source
[3] = molecular target: Sodium-dependent serotonin transporter (Homo sapiens, UniProt P31645)
Prothrombin = Prothrombin (Homo sapiens, UniProt P00734); assay type: functional
[4] = molecular target: Voltage-gated inwardly rectifying potassium channel KCNH2 (Homo sapiens, UniProt Q12809); assay type: functional; conditions: read-out: AC50
Voltage-gated inwardly rectifying potassium channel KCNH2, sequence (Q12809 whole entry): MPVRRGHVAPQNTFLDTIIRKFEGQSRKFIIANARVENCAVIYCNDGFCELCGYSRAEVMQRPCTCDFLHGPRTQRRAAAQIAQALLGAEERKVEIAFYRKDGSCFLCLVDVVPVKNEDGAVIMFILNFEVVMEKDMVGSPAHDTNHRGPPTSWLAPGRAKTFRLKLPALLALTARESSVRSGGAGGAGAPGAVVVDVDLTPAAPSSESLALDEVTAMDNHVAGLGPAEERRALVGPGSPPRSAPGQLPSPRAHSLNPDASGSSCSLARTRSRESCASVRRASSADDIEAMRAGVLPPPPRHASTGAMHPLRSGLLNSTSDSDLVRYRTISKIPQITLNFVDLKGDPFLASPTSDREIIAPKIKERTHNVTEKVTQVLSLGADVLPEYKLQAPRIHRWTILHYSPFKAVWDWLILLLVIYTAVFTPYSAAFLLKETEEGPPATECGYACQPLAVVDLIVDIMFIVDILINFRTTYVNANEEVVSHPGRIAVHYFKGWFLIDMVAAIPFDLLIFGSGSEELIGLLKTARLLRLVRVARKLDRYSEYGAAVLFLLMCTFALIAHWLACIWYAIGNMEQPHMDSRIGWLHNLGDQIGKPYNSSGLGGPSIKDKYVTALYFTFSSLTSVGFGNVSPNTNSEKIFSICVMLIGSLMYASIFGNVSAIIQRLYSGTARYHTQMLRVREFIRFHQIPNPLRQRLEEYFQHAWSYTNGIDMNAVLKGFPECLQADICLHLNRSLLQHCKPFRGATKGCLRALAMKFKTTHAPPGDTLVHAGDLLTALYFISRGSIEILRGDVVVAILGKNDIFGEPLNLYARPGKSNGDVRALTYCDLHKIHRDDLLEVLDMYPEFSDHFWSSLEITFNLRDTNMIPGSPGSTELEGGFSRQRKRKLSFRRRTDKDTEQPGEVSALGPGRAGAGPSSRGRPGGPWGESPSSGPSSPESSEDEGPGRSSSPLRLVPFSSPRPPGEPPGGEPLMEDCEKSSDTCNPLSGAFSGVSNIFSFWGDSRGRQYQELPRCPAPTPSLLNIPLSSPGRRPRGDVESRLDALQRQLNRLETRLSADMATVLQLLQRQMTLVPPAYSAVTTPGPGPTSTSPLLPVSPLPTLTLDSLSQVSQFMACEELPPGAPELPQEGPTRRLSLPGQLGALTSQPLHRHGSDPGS

[5] = molecular target: T2, Amine oxidase [flavin-containing] A (Homo sapiens, UniProt P21397); assay type: functional
T2 sequence (P21397 whole entry): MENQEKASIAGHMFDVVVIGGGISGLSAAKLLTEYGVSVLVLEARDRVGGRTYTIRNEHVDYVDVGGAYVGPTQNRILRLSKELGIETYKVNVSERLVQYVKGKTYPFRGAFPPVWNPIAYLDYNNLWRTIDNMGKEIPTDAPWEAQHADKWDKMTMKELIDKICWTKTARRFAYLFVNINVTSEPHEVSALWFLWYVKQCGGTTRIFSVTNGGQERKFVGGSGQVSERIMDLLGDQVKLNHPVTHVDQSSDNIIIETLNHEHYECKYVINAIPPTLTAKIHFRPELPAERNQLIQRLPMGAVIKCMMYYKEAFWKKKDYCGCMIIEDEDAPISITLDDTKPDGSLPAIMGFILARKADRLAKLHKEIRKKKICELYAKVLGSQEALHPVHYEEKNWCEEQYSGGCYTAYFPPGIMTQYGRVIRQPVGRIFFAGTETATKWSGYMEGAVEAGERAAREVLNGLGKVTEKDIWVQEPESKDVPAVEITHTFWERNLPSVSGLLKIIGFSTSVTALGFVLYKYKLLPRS

[6] = molecular target: cGMP-inhibited 3',5'-cyclic phosphodiesterase 3A (Homo sapiens, UniProt Q14432); assay type: functional
cGMP-inhibited 3',5'-cyclic phosphodiesterase 3A, sequence (Q14432 whole entry): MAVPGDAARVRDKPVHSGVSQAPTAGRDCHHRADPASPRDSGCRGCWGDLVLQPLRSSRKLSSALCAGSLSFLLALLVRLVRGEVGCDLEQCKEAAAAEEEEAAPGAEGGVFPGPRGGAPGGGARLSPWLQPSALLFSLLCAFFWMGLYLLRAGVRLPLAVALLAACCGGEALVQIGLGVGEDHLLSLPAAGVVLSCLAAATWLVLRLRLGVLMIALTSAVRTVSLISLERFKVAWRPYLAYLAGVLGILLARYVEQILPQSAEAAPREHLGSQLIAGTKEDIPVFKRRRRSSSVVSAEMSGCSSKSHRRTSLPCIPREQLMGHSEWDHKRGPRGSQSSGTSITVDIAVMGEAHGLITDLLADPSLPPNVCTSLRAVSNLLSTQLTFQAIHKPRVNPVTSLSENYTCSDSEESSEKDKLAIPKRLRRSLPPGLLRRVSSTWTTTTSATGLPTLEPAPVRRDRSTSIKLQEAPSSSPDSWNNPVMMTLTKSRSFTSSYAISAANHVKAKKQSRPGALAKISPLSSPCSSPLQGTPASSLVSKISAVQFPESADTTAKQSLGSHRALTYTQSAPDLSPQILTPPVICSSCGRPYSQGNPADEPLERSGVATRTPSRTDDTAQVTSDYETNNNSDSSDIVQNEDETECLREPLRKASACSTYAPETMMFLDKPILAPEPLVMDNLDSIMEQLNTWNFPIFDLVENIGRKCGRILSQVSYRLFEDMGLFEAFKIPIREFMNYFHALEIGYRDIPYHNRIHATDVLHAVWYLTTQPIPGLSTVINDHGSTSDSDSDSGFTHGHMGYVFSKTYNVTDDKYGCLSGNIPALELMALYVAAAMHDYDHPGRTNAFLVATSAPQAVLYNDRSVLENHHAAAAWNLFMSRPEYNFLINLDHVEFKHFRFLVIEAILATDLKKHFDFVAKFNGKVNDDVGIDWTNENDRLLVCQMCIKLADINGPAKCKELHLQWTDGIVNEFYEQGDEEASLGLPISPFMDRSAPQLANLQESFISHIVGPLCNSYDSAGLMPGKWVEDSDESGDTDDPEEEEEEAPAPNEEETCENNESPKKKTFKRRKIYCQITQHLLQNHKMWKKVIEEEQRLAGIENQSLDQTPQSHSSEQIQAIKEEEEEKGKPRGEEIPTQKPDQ

Thromboxane A2 receptor = molecular target: T3, Thromboxane A2 receptor (Homo sapiens, UniProt P21731); assay type: functional, cell-based
T3 sequence (P21731 whole entry): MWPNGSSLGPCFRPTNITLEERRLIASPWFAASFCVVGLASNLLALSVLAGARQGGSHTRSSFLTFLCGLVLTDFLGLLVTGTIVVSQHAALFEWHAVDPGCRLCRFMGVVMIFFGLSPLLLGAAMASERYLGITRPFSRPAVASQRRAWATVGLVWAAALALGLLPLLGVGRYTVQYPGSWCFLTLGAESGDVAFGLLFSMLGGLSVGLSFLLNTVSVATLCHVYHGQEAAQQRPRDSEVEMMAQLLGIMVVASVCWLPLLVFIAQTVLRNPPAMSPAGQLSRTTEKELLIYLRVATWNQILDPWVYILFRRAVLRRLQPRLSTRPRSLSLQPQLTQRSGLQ

[7] = molecular target: T4, Muscarinic acetylcholine receptor M2 (Homo sapiens, UniProt P08172)
T4 sequence (P08172 whole entry): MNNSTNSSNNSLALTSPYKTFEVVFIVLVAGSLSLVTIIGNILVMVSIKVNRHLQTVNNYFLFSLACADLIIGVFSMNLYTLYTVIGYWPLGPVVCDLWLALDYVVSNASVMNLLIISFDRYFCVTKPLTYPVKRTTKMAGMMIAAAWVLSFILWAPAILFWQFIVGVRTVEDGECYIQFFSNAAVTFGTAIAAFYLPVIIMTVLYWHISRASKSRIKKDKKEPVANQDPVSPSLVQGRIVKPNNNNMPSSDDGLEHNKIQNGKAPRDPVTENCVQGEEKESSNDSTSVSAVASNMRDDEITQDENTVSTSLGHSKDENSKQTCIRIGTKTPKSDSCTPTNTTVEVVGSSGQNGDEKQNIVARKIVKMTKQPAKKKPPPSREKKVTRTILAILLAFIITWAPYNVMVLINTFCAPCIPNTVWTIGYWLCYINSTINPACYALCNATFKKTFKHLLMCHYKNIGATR

[8] = molecular target: T5, Alpha-2A adrenergic receptor (Homo sapiens, UniProt P08913)
T5 sequence (P08913 whole entry): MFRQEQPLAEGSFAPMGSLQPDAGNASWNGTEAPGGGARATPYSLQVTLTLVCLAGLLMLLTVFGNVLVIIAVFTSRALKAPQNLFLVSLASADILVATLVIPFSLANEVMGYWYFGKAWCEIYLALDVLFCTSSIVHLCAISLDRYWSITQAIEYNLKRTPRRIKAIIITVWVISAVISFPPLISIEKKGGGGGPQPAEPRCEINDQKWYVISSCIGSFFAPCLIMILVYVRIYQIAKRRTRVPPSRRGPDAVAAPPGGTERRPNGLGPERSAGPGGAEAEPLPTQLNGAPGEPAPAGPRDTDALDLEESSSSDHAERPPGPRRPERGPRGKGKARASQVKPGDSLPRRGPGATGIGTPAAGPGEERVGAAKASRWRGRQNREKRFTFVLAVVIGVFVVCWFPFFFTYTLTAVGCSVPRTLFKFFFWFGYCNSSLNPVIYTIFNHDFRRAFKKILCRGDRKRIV

D(3) dopamine receptor = D(3) dopamine receptor (Homo sapiens, UniProt P35462)
D(3) dopamine receptor, sequence (P35462 whole entry): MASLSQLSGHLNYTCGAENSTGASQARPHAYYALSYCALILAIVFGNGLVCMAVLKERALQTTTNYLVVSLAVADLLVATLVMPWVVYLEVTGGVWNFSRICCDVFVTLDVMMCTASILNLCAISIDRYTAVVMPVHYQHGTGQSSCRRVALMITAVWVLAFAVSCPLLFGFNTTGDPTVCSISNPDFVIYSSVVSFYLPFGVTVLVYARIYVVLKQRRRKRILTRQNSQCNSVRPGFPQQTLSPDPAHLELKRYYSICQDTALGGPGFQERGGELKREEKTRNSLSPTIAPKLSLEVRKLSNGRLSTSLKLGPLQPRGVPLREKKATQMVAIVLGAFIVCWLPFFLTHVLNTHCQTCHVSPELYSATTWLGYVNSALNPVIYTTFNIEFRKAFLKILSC

[9] = molecular target: T6, 5-hydroxytryptamine receptor 1A (Homo sapiens, UniProt P08908)
T6 sequence (P08908 whole entry): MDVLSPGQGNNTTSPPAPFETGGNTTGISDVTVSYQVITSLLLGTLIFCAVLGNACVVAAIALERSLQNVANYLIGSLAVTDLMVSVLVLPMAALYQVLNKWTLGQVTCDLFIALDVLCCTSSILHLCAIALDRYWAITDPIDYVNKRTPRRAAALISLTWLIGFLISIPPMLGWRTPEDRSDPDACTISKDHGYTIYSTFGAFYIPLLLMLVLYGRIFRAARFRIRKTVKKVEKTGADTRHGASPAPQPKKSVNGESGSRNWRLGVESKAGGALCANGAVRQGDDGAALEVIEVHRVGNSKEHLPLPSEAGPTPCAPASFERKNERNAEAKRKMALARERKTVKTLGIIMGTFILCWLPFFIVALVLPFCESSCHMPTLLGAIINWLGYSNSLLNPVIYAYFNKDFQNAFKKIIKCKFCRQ

[10] = molecular target: 3',5'-cyclic-AMP phosphodiesterase 4A (Homo sapiens, UniProt P27815); assay type: functional
3',5'-cyclic-AMP phosphodiesterase 4A, sequence (P27815 whole entry): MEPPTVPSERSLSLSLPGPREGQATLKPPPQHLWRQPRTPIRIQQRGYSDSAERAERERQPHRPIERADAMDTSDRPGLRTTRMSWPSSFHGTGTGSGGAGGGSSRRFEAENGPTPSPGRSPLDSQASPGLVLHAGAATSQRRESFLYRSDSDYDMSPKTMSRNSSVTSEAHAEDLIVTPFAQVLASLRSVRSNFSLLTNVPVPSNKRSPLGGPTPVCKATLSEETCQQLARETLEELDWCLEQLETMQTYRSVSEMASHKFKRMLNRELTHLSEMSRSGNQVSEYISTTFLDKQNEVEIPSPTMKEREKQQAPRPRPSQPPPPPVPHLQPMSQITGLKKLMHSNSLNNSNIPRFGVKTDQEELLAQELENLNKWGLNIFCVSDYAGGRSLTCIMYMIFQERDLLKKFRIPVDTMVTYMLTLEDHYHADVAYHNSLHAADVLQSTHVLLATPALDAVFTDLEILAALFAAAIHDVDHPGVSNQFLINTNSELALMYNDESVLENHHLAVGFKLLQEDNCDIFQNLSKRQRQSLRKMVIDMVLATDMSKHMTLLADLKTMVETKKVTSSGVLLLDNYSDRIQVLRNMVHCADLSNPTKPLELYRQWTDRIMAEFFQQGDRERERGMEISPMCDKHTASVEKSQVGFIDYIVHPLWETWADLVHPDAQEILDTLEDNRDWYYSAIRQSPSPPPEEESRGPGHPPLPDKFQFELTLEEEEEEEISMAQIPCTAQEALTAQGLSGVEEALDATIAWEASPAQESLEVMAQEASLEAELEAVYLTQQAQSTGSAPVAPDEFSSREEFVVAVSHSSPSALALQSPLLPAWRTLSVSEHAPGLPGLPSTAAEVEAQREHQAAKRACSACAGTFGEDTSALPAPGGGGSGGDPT

[11] = molecular target: Vascular endothelial growth factor receptor 2 (Homo sapiens, UniProt P35968); assay type: functional
Vascular endothelial growth factor receptor 2, sequence (P35968 whole entry): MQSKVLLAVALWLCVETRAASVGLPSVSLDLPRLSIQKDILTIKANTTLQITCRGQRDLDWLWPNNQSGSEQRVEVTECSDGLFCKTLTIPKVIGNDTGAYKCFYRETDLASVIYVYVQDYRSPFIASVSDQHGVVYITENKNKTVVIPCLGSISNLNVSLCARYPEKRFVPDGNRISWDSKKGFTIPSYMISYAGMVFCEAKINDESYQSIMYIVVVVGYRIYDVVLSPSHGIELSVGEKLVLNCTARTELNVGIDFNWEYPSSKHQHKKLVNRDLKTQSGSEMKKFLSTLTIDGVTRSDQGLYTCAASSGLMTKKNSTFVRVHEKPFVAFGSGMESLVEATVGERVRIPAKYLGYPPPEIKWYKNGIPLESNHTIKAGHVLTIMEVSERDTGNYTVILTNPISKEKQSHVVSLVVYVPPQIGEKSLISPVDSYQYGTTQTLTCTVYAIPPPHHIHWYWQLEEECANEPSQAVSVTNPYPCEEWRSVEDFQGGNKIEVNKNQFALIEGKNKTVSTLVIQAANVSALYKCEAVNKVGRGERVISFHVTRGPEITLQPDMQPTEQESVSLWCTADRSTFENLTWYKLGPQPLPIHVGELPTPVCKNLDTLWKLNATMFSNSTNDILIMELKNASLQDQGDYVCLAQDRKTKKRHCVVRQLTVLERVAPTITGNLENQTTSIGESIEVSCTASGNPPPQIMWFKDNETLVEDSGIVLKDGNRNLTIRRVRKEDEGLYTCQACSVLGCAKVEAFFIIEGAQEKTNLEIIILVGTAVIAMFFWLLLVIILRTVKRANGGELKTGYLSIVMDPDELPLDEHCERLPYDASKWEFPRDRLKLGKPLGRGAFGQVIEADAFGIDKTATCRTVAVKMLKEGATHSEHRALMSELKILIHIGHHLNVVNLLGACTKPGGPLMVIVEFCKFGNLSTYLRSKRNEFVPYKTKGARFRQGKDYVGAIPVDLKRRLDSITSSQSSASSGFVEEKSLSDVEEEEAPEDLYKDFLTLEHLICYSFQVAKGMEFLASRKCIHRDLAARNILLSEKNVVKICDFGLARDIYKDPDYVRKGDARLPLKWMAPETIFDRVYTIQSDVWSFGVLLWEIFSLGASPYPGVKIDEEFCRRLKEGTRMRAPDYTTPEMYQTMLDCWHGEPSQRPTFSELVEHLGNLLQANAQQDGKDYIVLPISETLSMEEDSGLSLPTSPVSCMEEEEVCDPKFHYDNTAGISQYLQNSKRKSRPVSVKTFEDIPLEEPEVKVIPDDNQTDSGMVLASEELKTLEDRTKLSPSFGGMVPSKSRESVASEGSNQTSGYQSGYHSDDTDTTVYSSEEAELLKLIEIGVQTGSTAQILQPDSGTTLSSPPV

[12] = molecular target: Sodium-dependent noradrenaline transporter (Homo sapiens, UniProt P23975)
Also: assay procedure not described here.

Structure (SMILES)	AC50 (Acetylcholinesterase) [µM]	AC50 [1] [µM]	AC50 [2] [µM]	AC50 [3] [µM]	AC50 (Prothrombin) [µM]	AC50 [4] [µM]	AC50 [5] [µM]	AC50 [6] [µM]	AC50 (Thromboxane A2 receptor) [µM]	AC50 [7] [µM]	AC50 [8] [µM]	AC50 (D(3) dopamine receptor) [µM]	AC50 [9] [µM]	AC50 [10] [µM]	AC50 [11] [µM]	AC50 [12] [µM]
COC(=O)N[C@H](C(=O)N1CC2(CC2)C[C@H]1c1ncc(-c2ccc3c(c2)C(F)(F)c2cc(-c4ccc5nc([C@@H]6[C@H]7CC[C@H](C7)N6C(=O)[C@@H](NC(=O)OC)C(C)C)[nH]c5c4)ccc2-3)[nH]1)C(C)C	> 30	> 30	> 30	> 30	> 30	> 30	> 30	> 30	> 30	> 30	> 30	> 10	> 30	> 30	> 30	> 30
Cc1ncc(CO)c(CO)c1O [PYRIDOXINE]	> 30	> 3	> 30	> 30	> 30	> 30	> 30	> 30	> 30	> 30	> 30	> 30	> 30	> 30	> 30	> 30
O=C1Nc2ccccc2C1(c1ccc(O)cc1)c1ccc(O)cc1 [OXYPHENISATINE]	> 30	> 30	> 30	> 30	> 30	10.1	> 30	> 30	> 30	11.9	> 30	> 30	> 30	> 30	> 30	> 30
CC(C)=CCC/C(C)=C/CC/C(C)=C/CC/C(C)=C/CC1=C(C)C(=O)c2ccccc2C1=O [MENATETRENONE]	> 30	0.78	13.5	> 30	> 30	> 30	> 30	5.09	> 30	> 30	> 10	2.91	22.5	8.53	> 30	> 30
Cc1cnc(C(=O)O)c[n+]1[O-] [ACIPIMOX]	> 30	> 30	> 30	> 30	> 30	> 30	> 30	> 30	> 30	> 30	> 30	> 30	> 30	> 30	> 30	> 30
Nc1ccn(C[C@@H](CO)OCP(=O)(O)O)c(=O)n1 [CIDOFOVIR]	> 30	> 30	> 30	> 30	> 30	> 30	> 30	> 30	> 30	> 30	> 30	> 30	> 30	> 30	> 30	> 30
CC(C)NC[C@H](O)COc1ccc(CCOCC2CC2)cc1 [LEVOBETAXOLOL]	> 30	> 30	> 30	> 30	> 30	> 30	> 30	> 30	> 30	> 30	> 30	> 30	> 30	> 30	> 30	> 30
CC(O)(CC(=O)O)CC(=O)O [MEGLUTOL]	> 30	> 30	> 30	> 30	> 30	> 30	> 30	> 30	> 30	> 30	> 30	> 30	> 30	> 30	> 30	> 30
Cc1cn(-c2cc(NC(=O)c3ccc(C)c(Nc4nccc(-c5cnccn5)n4)c3)cc(C(F)(F)F)c2)cn1 [RADOTINIB]	> 10	> 30	26	> 30	> 30	> 30	> 30	> 3	> 30	> 30	> 30	> 30	> 30	> 30	1.54	> 30
COC(=O)N(C)c1c(N)nc(-c2nn(Cc3ccccc3F)c3ncccc23)nc1N [RIOCIGUAT]	> 30	> 30	> 30	> 30	> 30	5	> 30	> 30	> 30	> 30	> 30	> 30	> 30	> 30	> 30	> 30
CC(C)N1CCOC(c2cccc(C(F)(F)F)c2)C1 (stereo unspecified) [OXAFLOZANE]	> 30	> 30	> 30	> 30	> 30	> 30	> 30	> 30	> 30	23.5	> 30	1.65	0.513	> 30	> 30	> 30
